Test results: the supplement of paper PMC13380429

Assays:
Conditions in all cases: 72 h
[1] = tested on: Vero E6; test: drug sensitivity score (DSS) for viability; higher = more toxic; extreme values may be limits of the assay
[2] = tested on: Caco-2; test: as above
[3] = tested on: HepG2; test: as above
[4] = tested on: Calu-3; test: as above
[5] = tested on: U2OS; test: as above
[6] = tested on: Vero E6; test: relative viability EC50 (midpoint between 100% and the lowest measured viability); higher = less toxic
[7] = tested on: Caco-2; test: as above
[8] = tested on: HepG2; test: as above
[9] = tested on: Calu-3; test: as above
[10] = tested on: U2OS; test: as above
[11] = tested on: Vero E6; test: cell viability relative to DMSO; higher = less toxic
[12] = tested on: Caco-2; test: as above
[13] = tested on: HepG2; test: as above
[14] = tested on: Calu-3; test: as above
[15] = tested on: U2OS; test: as above

SMILES | drug sensitivity score [1] | drug sensitivity score [2] | drug sensitivity score [3] | drug sensitivity score [4] | drug sensitivity score [5] | relative viability EC50 [6] | relative viability EC50 [7] | relative viability EC50 [8] | relative viability EC50 [9] | relative viability EC50 [10] | cell viability ([11]; 1 nM) | cell viability ([11]; 10 nM) | cell viability ([11]; 100 nM) | cell viability ([11]; 1000 nM) | cell viability ([11]; 10000 nM) | cell viability ([12]; 1 nM) | cell viability ([12]; 10 nM) | cell viability ([12]; 100 nM) | cell viability ([12]; 1000 nM) | cell viability ([12]; 10000 nM) | cell viability ([13]; 1 nM) | cell viability ([13]; 10 nM) | cell viability ([13]; 100 nM) | cell viability ([13]; 1000 nM) | cell viability ([13]; 10000 nM) | cell viability ([14]; 1 nM) | cell viability ([14]; 10 nM) | cell viability ([14]; 100 nM) | cell viability ([14]; 1000 nM) | cell viability ([14]; 10000 nM) | cell viability ([15]; 1 nM) | cell viability ([15]; 10 nM) | cell viability ([15]; 100 nM) | cell viability ([15]; 1000 nM) | cell viability ([15]; 10000 nM)
COc1ccc2[nH]c(SCc3ncc(C)c(OC)c3C)nc2c1 [omeprazole-sulfide] | 0 | 0 | 0 | 0 | 0 | > 10 µM | > 10 µM | > 10 µM | > 10 µM | > 10 µM | 106% | 89.6% | 87.8% | 94.9% | 95.7% | 104% | 96.1% | 113% | 96% | 101% | 105% | 99.6% | 99% | 94.4% | 102% | 89.7% | 102% | 101% | 103% | 90.6% | 96.8% | 97.8% | 96.5% | 102% | 96.8%
CNC(=O)c1ccc2cc([C@@]3(O)CCn4cncc43)ccc2c1 [orteronel] | 0 | 0 | 0 | 0 | 0 | > 10 µM | > 10 µM | > 10 µM | > 10 µM | > 10 µM | 99.7% | 104% | 99.8% | 100% | 94.6% | 88.1% | 91.3% | 94.2% | 99.8% | 96.6% | 103% | 104% | 90.1% | 104% | 90% | 102% | 108% | 99.4% | 105% | 108% | 99.8% | 99% | 101% | 99% | 98.9%
NCCc1cc(O)c(O)cc1O [oxidopamine] | 0 | 0 | 0 | 0 | 0 | > 10 µM | > 10 µM | > 10 µM | > 10 µM | > 10 µM | 97.3% | 99.6% | 96.6% | 91.5% | 105% | 86.7% | 93.3% | 90.7% | 95.4% | 100% | 97.4% | 104% | 114% | 107% | 98.7% | 91.1% | 101% | 108% | 108% | 109% | 96% | 102% | 94.8% | 104% | 103%
COc1cc2c(cc1OC)-c1cc3ccc(OC)c(OC)c3c[n+]1CC2 [palmatine-chloride] | 0 | 0 | 0.6 | 0 | 0 | > 10 µM | > 10 µM | > 10 µM | > 10 µM | > 10 µM | 100% | 99.3% | 99.6% | 102% | 101% | 103% | 99.1% | 92.8% | 102% | 90.9% | 110% | 101% | 107% | 105% | 77.1% | 94.1% | 105% | 100% | 90.1% | 90% | 101% | 101% | 98.5% | 102% | 92.6%
COc1ccc(Cc2nccc3cc(OC)c(OC)cc23)cc1OC [papaverine] | 0 | 1.7 | 3.7 | 1.5 | 0 | > 10 µM | > 10 µM | 3.17 µM | > 10 µM | > 10 µM | 103% | 105% | 105% | 108% | 90.1% | 95% | 91.9% | 95.8% | 86.1% | 77.8% | 111% | 109% | 92.9% | 100% | 32.7% | 91.3% | 98.8% | 98.8% | 87.6% | 81.2% | 101% | 92.5% | 99% | 96.5% | 89.7%
NCCCC[C@@H]1NC(=O)[C@@H](Cc2c[nH]c3ccccc23)NC(=O)[C@H](c2ccccc2)NC(=O)[C@@H]2C[C@@H](OC(=O)NCCN)CN2C(=O)[C@H](Cc2ccccc2)NC(=O)[C@H](Cc2ccc(OCc3ccccc3)cc2)NC1=O [pasireotide] | 0 | 0 | 0 | 0 | 0 | > 10 µM | > 10 µM | > 10 µM | > 10 µM | > 10 µM | 98.9% | 89% | 96% | 83.6% | 96.8% | 108% | 107% | 88.4% | 110% | 146% | 91.9% | 105% | 114% | 102% | 93.3% | 102% | 101% | 87.8% | 106% | 108% | 96.7% | 104% | 95.8% | 102% | 108%
CN1CCC2=C(C1)C(c1ccccc1)c1ccccc12 (stereo not given) [phenindamine] | 0 | 0 | 0 | 0 | 0 | > 10 µM | > 10 µM | > 10 µM | > 10 µM | > 10 µM | 98.9% | 96.3% | 97.4% | 99.7% | 97.2% | 97.4% | 95.1% | 99.1% | 102% | 89% | 97% | 88.6% | 98.2% | 94.3% | 88.9% | 96.7% | 107% | 98.2% | 106% | 99.1% | 94% | 100% | 93.8% | 98% | 92.6%
COc1ccc(C(=O)Nc2c(Cl)cncc2Cl)cc1OC1CCCC1 [piclamilast] | 0.8 | 0 | 0 | 0 | 0 | > 10 µM | > 10 µM | > 10 µM | > 10 µM | > 10 µM | 98.3% | 95% | 92.4% | 91.4% | 82% | 96.6% | 97.3% | 102% | 107% | 98% | 90.4% | 86% | 92.7% | 102% | 101% | 97.5% | 89.4% | 102% | 99.9% | 87.5% | 98.2% | 95.7% | 103% | 98.3% | 94.8%
CN1CCC(=C2c3ccccc3Sc3ccccc32)CC1 [pimethixene] | 0 | 0 | 1.2 | 0 | 0 | > 10 µM | > 10 µM | > 10 µM | > 10 µM | > 10 µM | 103% | 101% | 106% | 105% | 98.4% | 100% | 89.7% | 96.9% | 101% | 102% | 108% | 98.9% | 121% | 84.7% | 92.1% | 103% | 105% | 100% | 100% | 101% | 103% | 97.8% | 102% | 99% | 95.5%
CC[N+]1(C)CCCC(OC(=O)C(O)(c2ccccc2)c2ccccc2)C1 (stereo not given) [pipenzolate] | 0 | 0 | 0 | 0 | 0 | > 10 µM | > 10 µM | > 10 µM | > 10 µM | > 10 µM | 105% | 101% | 105% | 103% | 96.7% | 102% | 100% | 103% | 95.2% | 95.7% | 89.3% | 102% | 97.7% | 99.8% | 94.3% | 96.3% | 95.5% | 93.3% | 94.6% | 91.8% | 100% | 95% | 95.4% | 93.3% | 97.4%
Clc1ccc(CCCOCCCN2CCCCC2)cc1 [pitolisant] | 0 | 0 | 0.3 | 0 | 0 | > 10 µM | > 10 µM | > 10 µM | > 10 µM | > 10 µM | 95% | 94.9% | 95.6% | 93.2% | 89.4% | 99.4% | 93.6% | 96.4% | 89.7% | 89.8% | 93.8% | 91.4% | 96% | 94.6% | 81.8% | 90.7% | 106% | 92.3% | 90.6% | 94.8% | 104% | 99.7% | 100% | 97.7% | 96.8%
C[C@]12C=CC(=O)C=C1CC[C@@H]1[C@@H]2[C@@H](O)C[C@@]2(C)[C@H]1CC[C@]2(O)C(=O)COC(=O)CCC(=O)O [prednisolone-hemisuccinate] | 0 | 1.1 | 0 | 0 | 0 | > 10 µM | > 10 µM | > 10 µM | > 10 µM | > 10 µM | 99.3% | 99.9% | 95.8% | 90% | 98.6% | 94.7% | 103% | 93.3% | 91.3% | 79.8% | 112% | 92.5% | 91.7% | 98.5% | 108% | 98.6% | 102% | 97.2% | 102% | 88.9% | 97.5% | 103% | 96% | 100% | 93.6%
Oc1cc(O)c2c(c1)O[C@H](c1ccc(O)c(O)c1)[C@H](O)[C@H]2c1c(O)cc(O)c2c1O[C@H](c1ccc(O)c(O)c1)[C@H](O)C2 [procyanidin-B-2] | 0 | 0 | 0 | 0 | 0 | > 10 µM | > 10 µM | > 10 µM | > 10 µM | > 10 µM | 97% | 98.2% | 91.8% | 101% | 93.4% | 106% | 102% | 102% | 98.7% | 105% | 98.5% | 100% | 96.8% | 99.3% | 94.7% | 112% | 95.6% | 100% | 93.1% | 109% | 103% | 99.9% | 106% | 99.5% | 104%
